Measured values published in patent US7872036B2, “3-triazolylphenyl sulfide derivative and insecticide, miticide and nematicide containing it as an active ingredient” (Kumiai Chemical Industry Co., Ltd., priority 2004, dated 2011).

Columns and labels:
brown planthoppers = test: Insecticidal test on brown planthoppers; format: in vivo, Nilaparvata lugens; details: active ingredient 500 ppm, germinating rice immersed, 4th-instar larvae, 25° C., 6 days
Protocol: Wettable powders were prepared in accordance with Formulation Example 2 and diluted with water to an active ingredient concentration of 500 ppm. Germinating rice was immersed in the resulting solutions and put in a plastic cup with a capacity of 60 ml. Ten 4th-instar larvae of brown planthoppers were released to the cup, and the cup was covered and placed in a thermostatic chamber at 25° C. for 6 days, and the survivors were counted for calculation of the insecticidal degree by using Equation 1. The test was carried out by one series system.

two-spotted spider mites [1] = test: Miticidal test on two-spotted spider mites (by soil drenching); format: in vivo, Tetranychus urticae; design: scale not given here; details: active ingredient 100 ppm, 5 ml per 100 g soil, 25° C., 13 days
Protocol: (§1) Wettable powders were prepared in accordance with Formulation Example 2 and diluted with water to an active ingredient concentration of 100 ppm. 100 g of the soil in cups with soybean seedlings which had been inoculated with imago two-spotted spider mites were drenched with 5 ml of the resulting solutions. The treated seedlings were placed in a thermoplastic chamber at 25° C. for 13 days, and the mite survivors were counted for calculation of the miticidal value by using Equation 2.

two-spotted spider mites [2] = test: Miticidal test on two-spotted spider mites (by dipping); format: in vivo, Tetranychus urticae; design: scale not given here; details: dipping of soybean seedlings, active ingredient 500 ppm, 25° C., 13 days
Protocol: as §1, with “500” for “100”, “Soybean” for “100 g of the soil in cups with soybean”, “dipped in” for “drenched with 5 ml of”, “solutions and dried in air.” for “solutions.”, “thermostatic” for “thermoplastic”, “2. The test was carried out by one series system.” for “2.”

[3] = system: southern root-knot nematodes; test: Nemastatic test on southern root-knot nematodes; format: in vivo, Meloidogyne sp.; details: diluted solution 20 ppm mixed 1:1 with suspension of second stage larvae, 25° C., 5 days
Protocol: Compounds of the present invention (5 parts) and Tween 20 (tradename for polyoxyethylene sorbitan monolaurate) (1 part) as a spreader were dissolved n N,N-dimethylformamide (94 parts) to prepare 5% emulsifiable concentrates of the compounds of the present invention. Distilled water was added to the emulsifiable concentrates to prepare diluted solutions having a concentration of the compounds of the present invention of 20 ppm. 0.5 ml of the diluted solutions and 0.5 ml of water suspensions containing 100 second stage larvae of southern root-knot nematodes were mixed, and the mixture were placed in a thermostatic chamber at 25° C. for 5 days, and the survivors were counted for calculation of the nemastatic degree by using Equation 3. The test was carried out by two series system.

SMILES | Insecticidal degree (%) (brown planthoppers) | Miticidal value (two-spotted spider mites [1]) | Miticidal value (two-spotted spider mites [2]) | Nemastatic degree (%) [3] [%]
CCc1nc(N)n(-c2cc([S+]([O-])CC(F)(F)F)c(C)cc2F)n1 (centres unmarked) [Compound 117] | 100 | 100 | 100 | –
CNc1nc(C(C)(C)C)nn1-c1cc([S+]([O-])CC(F)(F)F)c(C)cc1F (centres unmarked) [Compound 115] | 100 | 100 | 100 | 92
CNc1nc(C(C)(C)C)nn1-c1cc(SCC(F)(F)F)c(C)cc1F [Compound 114] | 100 | 100 | 100 | 100
Cc1cc(F)c(-n2nc([S+]([O-])C(F)F)nc2N)cc1[S+]([O-])CC(F)(F)F (centres unmarked) [Compound 30] | – | 100 | 100 | 95
Cc1cc(F)c(-n2nc(C(F)(F)F)nc2N(C)N)cc1[S+]([O-])CC(F)(F)F (centres unmarked) [Compound 171] | 100 | 100 | 100 | 100
Cc1cc(F)c(-n2nc(C(C)(C)C)nc2N)cc1SCC(F)(F)F [Compound 144] | 90 | 100 | 100 | 97
Cc1cc(F)c(-n2nc(C(F)(F)F)nc2NC(C)C)cc1[S+]([O-])CC(F)(F)F (centres unmarked) [Compound 167] | 100 | 100 | 100 | –
CC(=O)Nc1nc(C(F)(F)F)nn1-c1cc([S+]([O-])CC(F)(F)F)c(C)cc1F (centres unmarked) [Compound 76] | 100 | 100 | 100 | –
CCC(=O)Nc1nc(C(F)(F)F)nn1-c1cc([S+]([O-])CC(F)(F)F)c(C)cc1F (racemic) [Compound 187] | 100 | 99 | 100 | –
Cc1cc(F)c(-n2nc(SCC(F)(F)F)nc2N)cc1[S+]([O-])CC(F)(F)F (centres unmarked) [Compound 131] | 90 | 100 | 100 | 93
Cc1cc(F)c(-n2nc(C(F)(F)F)nc2N(C)C)cc1SCC(F)(F)F [Compound 43] | 100 | 100 | 100 | 93
Cc1cc(F)c(-n2nc(C(F)(F)F)nc2NN)cc1SCC(F)(F)F [Compound 162] | 100 | 95 | 100 | 100
Cc1cc(F)c(-n2nc(C(F)(F)F)nc2N)cc1SCC(F)(F)F [Compound 1, [5-(5-amino-3-trifluoromethyl-1,2,4-triazolyl)-4-fluoro-2-methylphenyl]2,2,2-trifluoroethyl sulfide] | 90 | 99 | 100 | 100
Cc1cc(F)c(-n2nc(C(F)(F)F)nc2NC(=O)NC(C)C)cc1[S+]([O-])CC(F)(F)F (racemic) [Compound 202] | 100 | 100 | 100 | –
Cc1ccc(-n2nc(C(F)(F)F)nc2NC(=O)C(F)(F)F)cc1[S+]([O-])CC(F)(F)F (centres unmarked) [Compound 153] | 100 | 100 | 100 | –
Cc1cc(F)c(-n2nc(C(F)(F)F)nc2NC(=O)N(C)C)cc1[S+]([O-])CC(F)(F)F (centres unmarked) [Compound 84] | 100 | 100 | 100 | –
COC(=O)Nc1nc(C(F)(F)F)nn1-c1cc([S+]([O-])CC(F)(F)F)c(C)cc1F (centres unmarked) [Compound 80] | 100 | 100 | 100 | –
CC(=O)Nc1nc(SCC(F)(F)F)nn1-c1cc([S+]([O-])CC(F)(F)F)c(C)cc1F (centres unmarked) [Compound 155] | 90 | 100 | 100 | –
Cc1cc(F)c(-n2nc([S+]([O-])CC(F)(F)F)nc2N)cc1[S+]([O-])CC(F)(F)F (centres unmarked) [Compound 133] | 100 | 100 | 100 | 98

SMILES | Insecticidal degree (%) (brown planthoppers) | Miticidal value (two-spotted spider mites [1]) | Miticidal value (two-spotted spider mites [2]) | Nemastatic degree (%) [3] [%]
CNc1nc(SCC(F)(F)F)nn1-c1cc([S+]([O-])CC(F)(F)F)c(C)cc1F (centres unmarked) [Compound 161] | 100 | 100 | 100 | 98
Cc1cc(F)c(-n2nc(C(F)(F)F)nc2N)cc1[S+]([O-])CC(F)(F)F (centres unmarked) [Compound 2, [5-(5-amino-3-trifluoromethyl-1,2,4-triazolyl)-4-fluoro-2-methylphenyl]2,2,2-trifluoroethyl sulfoxide] | 100 | 100 | 100 | 100
CCNc1nc(C(F)(F)F)nn1-c1cc([S+]([O-])CC(F)(F)F)c(C)cc1F (centres unmarked) [Compound 60] | 100 | 100 | 100 | –
CCc1nc(N)n(-c2cc([S+]([O-])CC(F)(F)F)c(C)cc2F)n1 (centres unmarked) [Compound 50] | 99 | 100 | 100 | 98
Cc1cc(F)c(-n2nc(C(F)(F)F)nc2NC(=O)C(F)(F)F)cc1SCC(F)(F)F [Compound 5, [5-(5-trifluoroacetylamino-3-trifluoromethyl-1,2,4-triazolyl)-4-fluoro-2-methylphenyl]2,2,2-trifluoroethyl sulfide] | 100 | 100 | 100 | –
Cc1cc(F)c(-n2nc(C#N)nc2N)cc1SCC(F)(F)F [Compound 35] | – | 93 | 100 | 100
Nc1nc(C(F)(F)F)nn1-c1ccc(Cl)c([S+]([O-])CC(F)(F)F)c1 (centres unmarked) [Compound 127] | 100 | 100 | 100 | 94
CNc1nc(SC(F)(F)C(F)(F)F)nn1-c1cc([S+]([O-])CC(F)(F)F)c(C)cc1F (centres unmarked) [Compound 102] | 100 | 100 | 100 | 98
Cc1cc(F)c(-n2nc(SC(F)(F)F)nc2N)cc1[S+]([O-])CC(F)(F)F (centres unmarked) [Compound 32] | 100 | 100 | 100 | –
Nc1nc(C(F)(F)F)nn1-c1ccc(C(F)F)c([S+]([O-])CC(F)(F)F)c1 (centres unmarked) [Compound 123] | – | 100 | 100 | 98
C#CCNc1nc(SCC(F)(F)F)nn1-c1cc([S+]([O-])CC(F)(F)F)c(C)cc1F (racemic) [Compound 185] | 100 | 100 | 100 | –
Cc1cc(F)c(-n2nc(SC(F)(F)F)nc2NC(=O)C(F)(F)F)cc1SCC(F)(F)F [Compound 99] | 100 | 100 | 100 | –
Cc1cc(F)c(-n2nc(C(F)(F)F)nc2N)cc1[S+]([O-])CC1CC1 (centres unmarked) [Compound 4] | 90 | 100 | 100 | –
Cc1cc(F)c(-n2nc(C(F)(F)F)nc2NC(=O)C(F)(F)Cl)cc1[S+]([O-])CC(F)(F)F (racemic) [Compound 192] | 100 | 100 | 100 | –
Cc1cc(F)c(-n2nc(C#N)nc2N)cc1[S+]([O-])CC(F)(F)F (centres unmarked) [Compound 36] | – | 100 | 100 | 100
CC(=O)Nc1nc(C(C)(C)C)nn1-c1cc([S+]([O-])CC(F)(F)F)c(C)cc1F (centres unmarked) [Compound 113] | 100 | 100 | 100 | –
CNc1nc(C(F)(F)F)nn1-c1ccc(C)c(SCC(F)(F)F)c1 [Compound 37] | 100 | 100 | 100 | –
Cc1cc(F)c(-n2nc(C(F)(F)F)nc2NC(=O)CCl)cc1[S+]([O-])CC(F)(F)F (racemic) [Compound 190] | 100 | 100 | 100 | –
